Experimental data reported in PMC4774911, “Biochemical Screening of Five Protein Kinases from Plasmodium falciparum against 14,000 Cell-Active Compounds” (PLoS ONE, 2016).

Legend:
[1] = molecular target: T1, Plasmodium falciparum calcium-dependent protein kinase 1 (CDPK1) (Plasmodium falciparum, UniProt P62344); assay: CDPK1 Kinase-Glo ATP-consumption screen and dose-response; format: biochemical; conditions: hits below 1 uM; read-out: CDPK1 IC50
T1 construct: 6-Histidine (N); made in house
Method in brief: (§1)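 ATP consumption by recombinant P. falciparum CDPK4 or CDPK1 measured as residual ATP by Kinase-Glo luminescence, with 40 μM Syntide-2 substrate and 90 min incubation stopped with 5 mM EGTA. Single-point screen at 1 μM final, followed by dose-response; no-substrate wells as negative control.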

[2] = molecular target: T2, Plasmodium falciparum calcium-dependent protein kinase 4 (CDPK4) (Plasmodium falciparum, UniProt Q8IBS5); assay: CDPK4 Kinase-Glo ATP-consumption screen and dose-response; format: biochemical; conditions: hits below 1 uM
T2 construct: 6-Histidine (N); made in house
T2 sequence (Q8IBS5 1-528): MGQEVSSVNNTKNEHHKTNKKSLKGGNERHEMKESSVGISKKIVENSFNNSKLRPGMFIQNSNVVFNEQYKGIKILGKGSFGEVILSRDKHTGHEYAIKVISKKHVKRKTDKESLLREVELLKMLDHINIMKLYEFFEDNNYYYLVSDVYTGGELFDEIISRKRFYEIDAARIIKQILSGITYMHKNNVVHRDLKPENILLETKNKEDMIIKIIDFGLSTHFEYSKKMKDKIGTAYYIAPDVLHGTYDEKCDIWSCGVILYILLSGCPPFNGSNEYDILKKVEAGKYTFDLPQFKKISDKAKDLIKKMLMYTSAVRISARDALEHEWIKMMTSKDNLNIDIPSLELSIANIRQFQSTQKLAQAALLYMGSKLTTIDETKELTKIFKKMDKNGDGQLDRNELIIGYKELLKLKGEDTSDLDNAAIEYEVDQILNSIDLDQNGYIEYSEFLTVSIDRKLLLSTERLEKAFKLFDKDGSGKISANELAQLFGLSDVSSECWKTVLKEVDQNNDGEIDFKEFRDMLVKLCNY
Method in brief: as §1

PKG = PKG (Plasmodium falciparum, UniProt Q8I719); assay: PKG IC50 (supplementary data file of hits); format: biochemical
Chain of PKG (Q8I719 whole entry): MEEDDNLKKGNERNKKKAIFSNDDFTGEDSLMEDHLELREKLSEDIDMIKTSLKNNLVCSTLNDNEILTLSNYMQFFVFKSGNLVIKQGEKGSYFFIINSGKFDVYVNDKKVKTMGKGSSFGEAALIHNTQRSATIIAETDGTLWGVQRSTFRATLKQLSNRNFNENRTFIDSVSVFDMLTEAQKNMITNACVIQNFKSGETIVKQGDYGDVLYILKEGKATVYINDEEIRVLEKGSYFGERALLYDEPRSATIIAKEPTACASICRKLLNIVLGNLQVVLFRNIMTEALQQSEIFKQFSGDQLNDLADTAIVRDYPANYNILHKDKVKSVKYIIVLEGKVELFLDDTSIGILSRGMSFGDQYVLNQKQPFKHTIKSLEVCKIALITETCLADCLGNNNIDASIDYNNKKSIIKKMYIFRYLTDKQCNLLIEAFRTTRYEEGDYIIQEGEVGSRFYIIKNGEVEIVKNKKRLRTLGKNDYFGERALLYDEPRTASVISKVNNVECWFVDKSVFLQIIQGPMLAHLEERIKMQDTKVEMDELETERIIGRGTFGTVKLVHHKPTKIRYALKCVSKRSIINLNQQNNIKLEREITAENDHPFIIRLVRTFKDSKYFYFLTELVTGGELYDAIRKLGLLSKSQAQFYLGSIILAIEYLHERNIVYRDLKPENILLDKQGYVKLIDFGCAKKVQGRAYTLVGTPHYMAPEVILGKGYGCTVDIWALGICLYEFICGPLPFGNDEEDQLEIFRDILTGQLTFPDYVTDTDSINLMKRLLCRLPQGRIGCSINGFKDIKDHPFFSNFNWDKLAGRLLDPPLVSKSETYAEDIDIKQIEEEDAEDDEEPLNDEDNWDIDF
Source text: Supplement pone.0149996.s003.xls, sheet "combined_1_sorted"

HepG2 cells = conditions: HepG2 cells; downloaded from ChEMBL ref F.J. Gamo et al., Nature 2010; cited from earlier work
P. falciparum 3D7 cells = conditions: P. falciparum 3D7; downloaded from ChEMBL ref F.J. Gamo et al., Nature 2010; cited from earlier work
DD2 = test system: DD2; parameters: method as in F.J. Gamo et al., Nature 2010; conditions: P. falciparum Dd2; downloaded from ChEMBL ref F.J. Gamo et al., Nature 2010; cited from earlier work
3D7 PFLDH = test system: 3D7 PFLDH; parameters: method as in F.J. Gamo et al., Nature 2010; conditions: downloaded from ChEMBL ref F.J. Gamo et al., Nature 2010; cited from earlier work
[3] = molecular target: T3, Plasmodium falciparum protein kinase 6 (PK6) (Plasmodium falciparum, UniProt Q8IDW1); assay: biochemical; conditions: hits below 1 uM; read-out: PK6 IC50
T3 construct: 6-Histidine (N); made in house
T3 sequence (Q8IDW1 1-305): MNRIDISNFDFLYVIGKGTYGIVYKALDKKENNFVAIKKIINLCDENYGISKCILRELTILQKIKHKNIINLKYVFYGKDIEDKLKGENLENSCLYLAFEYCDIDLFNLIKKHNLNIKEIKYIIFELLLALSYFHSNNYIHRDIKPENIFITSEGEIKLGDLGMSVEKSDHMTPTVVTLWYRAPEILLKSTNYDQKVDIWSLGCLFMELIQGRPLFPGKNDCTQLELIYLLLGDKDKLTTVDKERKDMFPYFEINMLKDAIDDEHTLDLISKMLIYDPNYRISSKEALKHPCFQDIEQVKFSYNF

[4] = test system: Plasmodium falciparum mitogen-associated protein kinase 2 (MAPK2/MAP2); assay: MAPK2 Kinase-Glo ATP-consumption screen; format: biochemical; conditions: concentrations of 10–30 μM
Experimental: Biochemical assays were performed in white 384-well plates (Nunc). Liquid transfers were done manually with 8-channel pipets. Compounds were initially tested in a single-point screen (final concentration 1 μM). […] The catalytic activity of each kinase was considered proportional to ATP consumed, as determined from measurements of residual [ATP] with the luciferase-based reagent Kinase-Glo (Promega) following incubation. Luminescence (proportional to residual [ATP]) was measured on the plate readers FLx800 (BioTek Instruments, Winooski, VT, USA) and MicroBeta^2 (PerkinElmer, Waltham, MA, USA). Incubation times were chosen to ensure near-complete ATP depletion in the absence of inhibition, thus maximizing the difference in signal between inhibited and uninhibited wells.
Final concentrations were 1 μM ATP, 0.5 mM DTT, 1 mM MgCl2, 0.5 mg/mL BSA, and 10 μg/ml MAP2 in a buffer of 50 mM HEPES (pH 7.0). 0.5 mg/mL histone III-S served as the substrate; 100 μM AMP-PNP, an ATP analog, was used as a control inhibitor. Incubation time was 4 hours.

T1 sequence (P62344 whole entry): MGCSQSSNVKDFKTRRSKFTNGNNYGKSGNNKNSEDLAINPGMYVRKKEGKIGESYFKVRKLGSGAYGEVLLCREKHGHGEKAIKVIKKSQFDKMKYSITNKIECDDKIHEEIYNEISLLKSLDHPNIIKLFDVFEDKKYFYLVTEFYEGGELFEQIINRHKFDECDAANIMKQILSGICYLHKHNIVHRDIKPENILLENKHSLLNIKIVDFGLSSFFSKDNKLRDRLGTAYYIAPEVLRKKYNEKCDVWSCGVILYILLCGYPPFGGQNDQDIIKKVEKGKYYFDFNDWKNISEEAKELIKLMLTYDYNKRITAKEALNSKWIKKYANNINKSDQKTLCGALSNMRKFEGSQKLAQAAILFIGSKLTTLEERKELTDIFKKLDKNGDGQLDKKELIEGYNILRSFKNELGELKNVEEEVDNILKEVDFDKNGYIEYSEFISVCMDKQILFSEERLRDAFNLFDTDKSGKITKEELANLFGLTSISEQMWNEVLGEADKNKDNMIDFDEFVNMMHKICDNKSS

SMILES	IC50 [1] [µM]	IC50 [2] [µM]	IC50 (PKG) [µM]	PCT_INHIB_HEPG2 (HepG2 cells)	PCT_IHB_3D7 (P. falciparum 3D7 cells)	pXC50_3D7 (P. falciparum 3D7 cells)	PCT_INHB_DD2 (DD2)	PCT_INHIB_3D7_PFLDH (3D7 PFLDH)	IC50 [3] [µM]	Inhibition of MAPK2 (tested as possible control inhibitor) [4]
CCn1c(-c2nonc2N)nc2c(-c3cccc(NC(=O)Nc4cccc(C(F)(F)F)c4)c3)ncc(OCCCN)c21.O=C(O)C(F)(F)F [TCMDC-136178]	0.015	0.342	2.08	21	95	6.014	70	2		
CCN(CC)CCCOc1ccc(Nc2nccc(-c3c(-c4cccc(NC(=O)c5c(F)cccc5F)c4)nn4ccccc34)n2)cc1F [TCMDC-135920]	0.429	0.086	0.131	86	100	6.39	99	0	0.302	
CC(=O)Nc1cccc(Nc2nccc(-c3c(-c4cccc(NC(=O)c5c(F)cccc5F)c4)nn4ncccc34)n2)c1 [TCMDC-135548]	0.015	0.026	0.524	83	96	6.736	51	5	0.144	
NC1=NC(=O)/C(=C2\CCNC(=O)c3[nH]c(Br)cc32)N1 [hymenialdisine]										None gave consistent inhibition
CC(c1cccc(Nc2nccc(-c3c(-c4cccc(NC(=O)c5c(F)cccc5F)c4)nn4ncccc34)n2)c1)S(C)(=O)=O (stereo not drawn) [TCMDC-135696]	0.095	0.024	> 10	79	98	7.341	98	4	0.375	
O=C(Nc1cccc(-c2nn3ccccc3c2-c2ccnc(Nc3cccc(-c4cnco4)c3)n2)c1)C1CCCCC1 [TCMDC-135769]	0.164	0.612	> 10	71	95	6.584	99	0		
O=C(Nc1cccc(-c2nn3ncccc3c2-c2ccnc(Nc3cccc(-c4cnco4)c3)n2)c1)c1c(F)cccc1F [TCMDC-135550]	0.023	0.145	> 10	96	97	6.779	98	2		
CC(C)(C)CNCC(C)(C)c1nc(-c2ccc(Cl)c(O)c2)c(-c2ccncc2)[nH]1.Cl [TCMDC-140549]	0.159	0.637	> 10	42	100	6.221	98	5		
CS(=O)(=O)Cc1ccc(Nc2nccc(-c3c(-c4cccc(NC(=O)C5CCCCC5)c4)nn4ncccc34)n2)cc1 [TCMDC-135812]	0.037	0.067	> 10	31	98	6.697	99	0	0.139	
O=C1Nc2ccc3ncsc3c2/C1=C/Nc1ccc(S(=O)(=O)Nc2ccccn2)cc1 [GW8510]										None gave consistent inhibition
CS(=O)(=O)Cc1ccc(Nc2nccc(-c3c(-c4cccc(C(=O)Nc5c(F)cccc5F)c4)nn4ccccc34)n2)cc1 [TCMDC-135742]	0.05	0.065	> 10	85	96	6.274	92	0	0.105	
COCCOc1ccc(Nc2nccc(-c3c(-c4cccc(NC(=O)c5c(F)cccc5F)c4)nn4ccccc34)n2)cc1Cl [TCMDC-135955]	0.152	0.853	> 10	53	99	6.448	97	4		
O=C(NCC(c1ccc(C(F)(F)F)cc1)N1CCCC1)c1cc(-c2ccncc2)c(-c2cccc(O)c2)o1.O=C(O)C(F)(F)F (stereo not drawn) [TCMDC-135665]	0.283	0.178	7.64	9	95	5.973	53	0		
O=C(Nc1cccc(-c2nn3ncccc3c2-c2ccnc(Nc3ccccc3)n2)c1)c1c(F)cccc1F [TCMDC-134631]	0.039	0.352	> 10	51	98	6.139	96	0		
CCn1c(-c2nonc2N)nc2c(-c3cccc(NC(=O)Nc4ccccc4Cl)c3)ncc(OCCCN)c21.O=C(O)C(F)(F)F [TCMDC-136192]	0.072	0.138	0.566	2	99	6.173	74	0		
O=C(Nc1cccc(-c2nn3ccccc3c2-c2ccnc(Nc3ccc(C(=O)N4CCOCC4)cc3)n2)c1)c1c(F)cccc1F [TCMDC-135910]	0.092	0.311	> 10	72	99	6.417	97	4		
CC(C)(CN)c1cc(-c2ccc(Cl)c(O)c2)c(-c2ccncc2)o1.Cl [TCMDC-141334]	0.013	0.433	0.042	44	92	5.944	97	7		
CCn1c(-c2nonc2N)nc2c(-c3cccc(NC(=O)Nc4ccccc4OC)c3)ncc(OCCCN)c21.O=C(O)C(F)(F)F [TCMDC-136190]	0.032	0.706	0.783	84	92	5.998	58	0		
COc1cc(Nc2nccc(-c3c(-c4cccc(NC(=O)c5c(F)cccc5F)c4)nn4ccccc34)n2)cc(OC)c1OC [TCMDC-135668]	0.06	0.077	> 10	74	98	7.112	98	4		
COc1cc(Nc2nccc(-c3c(-c4cccc(NC(=O)c5c(F)cccc5F)c4)nn4ncccc34)n2)cc(OC)c1OC [TCMDC-135684]		0.045	> 10	96	98	7.4867	97	1		
